{"source": "paper PMC5371667", "about": "“Targeting Bile Acid Receptors: Discovery of a Potent and Selective Farnesoid X Receptor Agonist as a New Lead in the Pharmacological Approach to Liver Diseases” (Frontiers in Pharmacology, 2017)", "key": {"hFXR": {"molecular_target": "T1, hFXR (Homo sapiens, UniProt Q96RI1)", "T1 construct": "expressed in transfected cells; host or cells: HepG2", "T1 sequence (Q96RI1 1-486)": "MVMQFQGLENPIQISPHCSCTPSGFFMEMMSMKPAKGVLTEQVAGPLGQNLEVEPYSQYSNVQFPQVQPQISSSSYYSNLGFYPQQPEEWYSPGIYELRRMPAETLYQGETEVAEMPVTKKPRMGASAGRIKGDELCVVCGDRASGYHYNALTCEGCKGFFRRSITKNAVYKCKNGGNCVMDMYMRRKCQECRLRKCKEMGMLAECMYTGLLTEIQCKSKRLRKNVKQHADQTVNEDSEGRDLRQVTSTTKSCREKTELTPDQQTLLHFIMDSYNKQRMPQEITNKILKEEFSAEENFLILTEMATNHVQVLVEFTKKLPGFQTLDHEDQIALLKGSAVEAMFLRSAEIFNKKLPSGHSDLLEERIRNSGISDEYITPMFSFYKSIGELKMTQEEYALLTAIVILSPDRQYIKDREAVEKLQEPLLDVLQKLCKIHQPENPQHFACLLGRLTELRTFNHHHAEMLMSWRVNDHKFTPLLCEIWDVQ", "T1 sequence (P19793 1-462 partner)": "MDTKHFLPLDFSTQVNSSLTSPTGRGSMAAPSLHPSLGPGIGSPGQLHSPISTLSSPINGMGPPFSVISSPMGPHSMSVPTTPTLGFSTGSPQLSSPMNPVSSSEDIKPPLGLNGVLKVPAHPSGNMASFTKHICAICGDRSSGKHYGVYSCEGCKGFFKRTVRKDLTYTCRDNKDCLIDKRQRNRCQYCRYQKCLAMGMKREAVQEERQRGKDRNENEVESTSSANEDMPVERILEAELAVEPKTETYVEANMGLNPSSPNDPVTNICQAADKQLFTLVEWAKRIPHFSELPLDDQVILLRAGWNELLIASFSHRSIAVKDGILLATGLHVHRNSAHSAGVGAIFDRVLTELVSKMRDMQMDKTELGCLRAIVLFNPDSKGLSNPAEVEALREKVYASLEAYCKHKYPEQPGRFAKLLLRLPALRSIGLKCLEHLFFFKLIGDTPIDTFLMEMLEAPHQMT", "test": "FXR transactivation on HepG2 cells (luciferase reporter)", "assay_type": "cell-based", "experimental": "HepG2 (HB, 8065 from ATCC), an immortalized human epatocarcinoma cell line, was cultured and maintained at 37°C and 5% CO2 in E-MEM additioned with 10% FBS, 1% glutamine, and 1% penicillin/streptomycin. For FXR mediated transactivation, HepG2 cells were plated at 5 × 10^4 cells/well in a 24 well plate. Cells were transfected with 200 ng of the reporter vector p(hsp27)-TK-LUC containing a FXR response element (IR1) cloned from the promoter of heat shock protein 27 (hsp27), 100 ng of pSG5-FXR, 100 ng of pSG5-RXR, and 100 ng of pGL4.70 (Promega), a vector encoding the human Renilla gene. For GPBAR1 mediated transactivation, HepG2 cells were plated at 5 × 10^4 cells/well in a 24 well-plate and transfected with 200 ng of pGL4.29 (Promega), a reporter vector containing a cAMP response element (CRE) that drives the transcription of the luciferase reporter gene luc2P, with 100 ng of pCMVSPORT6-human GPBAR1, and with 100 ng of pGL4.70 Renilla. […]. TLCA (10 μM) was used as a positive control for GPBAR1 activity.\nHepG2 cells were transfected as described above and then treated with increasing concentrations of compounds. At 18 h post stimulations, cellular lysates were assayed for luciferase and Renilla activities using the Dual-Luciferase Reporter assay system (E1980, Promega). Luminescence was measured using Glomax 20/20 luminometer (Promega). Luciferase activities were normalized with Renilla activities."}, "LXRα": {"molecular_target": "T2, LXRα (Homo sapiens, UniProt Q13133)", "T2 construct": "expressed in transfected cells; host or cells: HepG2", "T2 sequence (Q13133 209-447 limits assumed)": "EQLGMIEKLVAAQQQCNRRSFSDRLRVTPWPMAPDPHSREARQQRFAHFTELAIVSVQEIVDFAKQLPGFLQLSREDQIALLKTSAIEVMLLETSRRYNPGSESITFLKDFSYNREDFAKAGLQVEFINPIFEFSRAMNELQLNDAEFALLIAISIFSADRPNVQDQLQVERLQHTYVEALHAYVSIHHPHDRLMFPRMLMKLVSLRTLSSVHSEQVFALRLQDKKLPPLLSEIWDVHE", "test": "LXRα transactivation on HepG2 cells (GAL4 LBD reporter)", "assay_type": "cell-based", "conditions": "10 μM", "experimental": "To evaluate LXRα and LXRβ mediated transactivation, HepG2 cells were transfected with 200 ng of the reporter vector p(UAS)5XTKLuc, 100 ng of a vector containing the ligand binding domain of LXRα or LXRβ cloned upstream of the GAL4-DNA binding domain (i.e., pSG5-LXRαLBD-GAL4DBD or pSG5-LXRβLBD-GAL4DBD) and 100 of pGL4.70 Renilla. At 24 h post-transfection, cells were stimulated 18 h with 10 μM compound 2 and GW3965 (GW, 10 μM) was used as positive control. To investigate the PPARα and PPARγ mediated transactivation, HepG2 cells were transiently transfected with 200 ng reporter vector p(UAS)9XTKLuc, 100 ng of a vector containing the ligand binding domain of PPARα or PPARγ cloned upstream of the GAL4-DNA binding domain (i.e., pSG5- PPARαLBD-GAL4DBD or pSG5- PPARγLBD-GAL4DBD) and 100 of pGL4.70 Renilla. For PPARα transactivation, cells were stimulated with 10 μM compound 2 and gemfibrozil (GEM, 10 μM) was used as positive control. For PPARγ transactivation, cells were stimulated with 10 μM compound 2 and rosiglitazone (ROSI, 100 nM) was used as a positive control. Luciferase activities were assayed and normalized with Renilla activities."}}}
{"smiles": "CC[C@H]1[C@@H](O)[C@@H]2[C@H](CC[C@]3(C)[C@@H]([C@H](C)CCC(=O)O)CC[C@@H]23)[C@@]2(C)CC[C@H](N=[N+]=[N-])C[C@@H]12", "note": "[compound 2, 3β-azido-6α-ethyl-7α-hydroxy-5β-cholan-24-oic acid]", "values": [{"measurement": "EC50", "setting": "hFXR; 10 nM to 25 μM, 18 h", "value": 846, "unit": "nM"}, {"measurement": "FXR transactivation compared with 6-ECDCA", "setting": "hFXR; 10 μM", "value": "equipotent with 6-ECDCA"}, {"measurement": "LXRα transactivation", "setting": "LXRα", "value": "unable in inducing"}]}
